{"source": "patent US6057419A", "about": "“Cascade polymer complexes, process for producing the same and pharmaceuticals containing the same” (Schering Aktiengesellschaft, priority 1995, dated 2000)", "key": {"[1]": {"settings": "in vivo; cited from earlier work"}, "[2]": {"test": "In vivo comparison with an extracellular contrast medium: blood concentrations and pharmacokinetics in rats (ICP-AES, Topfit program)", "settings": "rats (n=3), i.v.", "description": "The suitability of the compound described in Example 1l as a blood-pool agent is shown in the following test.\nAs test animals, three male (Schering-SPF) rats that are 200-250 g in weight are used. 0.2 ml (respectively 25 mmol/L) of the following contrast medium solution per animal is administered intravenously: mixture of 1 part each of the compound of 1l, named compound 1 below, and the dysprosium complex of 3,6,9-triaza-3,6,9-tris(carboxymethyl)-undecanedioicacid (Dy-DTPA), named compound 2 below. Blood samples are taken with a catheter in the common carotid artery at the following times: 1, 3, 5, 10, 15, 20, 30, 45, 60, 90, 120 minutes p.i. In the blood samples obtained, the concentrations of gadolinium (Gd) and dysprosium (Dy) are measured with the aid of atomic emission spectrometry (ICP-AES) in each case in a parallel manner. The portion of the injected contrast medium of compound 1 (Gd) and compound 2 (Dy, comparison substance), remaining in the blood space, can be compared in the same animals by the different marking. The a- and b-half-lives, the volume of distribution as well as the total clearance can be calculated from the blood concentrations with the aid of special software (Topfit program).\nMeasured blood concentrations of Gd (compound 1) and Dy (compound 2) in rats (n=3)"}, "[3]": {"settings": "cited from earlier work"}, "[4]": {"settings": "excretion tests in rats; cited from earlier work"}}}
{"compound": "CNC[C@H](O)[C@@H](O)[C@H](O)[C@H](O)CO.CNC[C@H](O)[C@@H](O)[C@H](O)[C@H](O)CO.O=C([O-])CN(CCN(CC(=O)[O-])CC(=O)O)CCN(CC(=O)[O-])CC(=O)O.[Gd+3]", "note": "[Magnevist]", "values": [{"measurement": "dispersion space (entire extracellular space: intravascular space and interstitium)", "setting": "[1]", "value": "about 20 % of the volume of the body"}]}
{"compound": "COCC(=O)Nc1c(I)c(C(=O)NCC(O)CO)c(I)c(C(=O)N(C)CC(O)CO)c1I", "note": "(stereo not shown) [Ultravist]", "values": [{"measurement": "dispersion space (entire extracellular space: intravascular space and interstitium)", "setting": "[1]", "value": "about 20 % of the volume of the body"}]}
{"compound": "CNC(=O)CN(CCN(CCN(CC(=O)[O-])CC(=O)NC)CC(=O)[O-])CC(=O)[O-].[Gd+3]", "note": "[Omniscan]", "values": [{"measurement": "dispersion space (entire extracellular space: intravascular space and interstitium)", "setting": "[1]", "value": "about 20 % of the volume of the body"}]}
{"compound": "dysprosium complex of 3,6,9-triaza-3,6,9-tris(carboxymethyl)-undecanedioicacid [Compound 2, reference compound]", "values": [{"measurement": "Vd ss (volume of distribution)", "setting": "[2]", "value": "0.41 ± 0.04", "unit": "L/kg"}, {"measurement": "α-t1/2", "setting": "[2]; blood", "value": "1.5 ± 0.5", "unit": "min"}, {"measurement": "β-t1/2", "setting": "[2]; blood", "value": "19.2 ± 2.5", "unit": "min"}]}
{"compound": "CC(O)CN1CCN(CC(=O)[O-])CCN(CC(=O)[O-])CCN(CC(=O)[O-])CC1.[Gd+3]", "note": "(stereo not shown) [Pro Hance]", "values": [{"measurement": "dispersion space (entire extracellular space: intravascular space and interstitium)", "setting": "[1]", "value": "about 20 % of the volume of the body"}]}
{"compound": "albumin-GdDTPA", "values": [{"measurement": "concentration in the liver tissue", "setting": "[3]; 24 h after intravenous injection in rats", "value": "~30 % of the dose"}, {"measurement": "dose eliminated", "setting": "[3]; in 24 hours, rats, i.v.", "value": "20 % of the dose"}]}
{"compound": "polylysine-GdDTPA", "values": [{"measurement": "excretion (in words)", "setting": "[4]", "value": "excreted unchanged by glomerular filtration through the kidneys"}]}
